Structures can show the parent of a compound that is named as a salt.
Tests used:
CYP11A1 = assay: Changes in SF1 target gene expression for NCI-H295R: CYP11A1 mRNA (qPCR); format: cell-based; conditions: Homo sapiens, NCI-H295R cells, 24 hr
Protocol: (§1) NCI-H295R cells were cultured in a 5% CO2 incubator at 37° C. using DMEM/F12 medium (Thermo Fisher Scientific Inc.) containing 2.5% Nu-Serum (registered trademark) Growth Medium Supplement (Corning) and 1% Corning ITS+ Premix Universal Culture Supplement (Corning). The DMSO solution of each compound was serially diluted with DMSO using a D300e Digital Dispenser (TECAN), and the compounds were added to a 96-well plate (FALCON). NCI-H295R cells were seeded at 1×10^4 cells/50 μL/well on the 96-well plate containing the compounds added thereto, and cultured for 24 hr in a 5% CO2 incubator at 37° C. The final DMSO concentration in the medium was adjusted to 0.1% (v/v) in all cases, and the concentration range of the compounds was set to 1000 nM to 0.32 nM with a common ratio […]. After the completion of culture, the medium was discarded, 50 μL/well of chilled D-PBS (Sigma Aldrich) was added to wash the cells, and D-PBS was discarded. After washing, 25 μL/well of Cells-to-CT (registered trademark) Bulk Lysis Reagents (Thermo Fisher Scientific, Inc.) was added to the wells, the mixture was stirred for 5 min with a plate mixer, and 2.5 μL/well of the reaction quenching liquid was added to prepare cell lysate. The cell lysate was dispensed into a 96-well plate (Corning) at 10 μL/well, and 40 μL/well of Cells-to-CT Bulk RT Reagents (Thermo Fisher Scientific, Inc.) was added. A reverse transcription reaction was performed at 37° C. for 50 min using a thermal cycler, and the reverse transcriptase was inactivated by heating at 95° C. for 5 min, and then stored at 10° C. PrimeTime (registered trademark) Gene Expression Master Mix (Integrated DNA Technologies), the target genes CYP11A1, CYP17A1, CYP21A2, or STAR, and the control gene ACTB PrimeTime (registered trademark) qPCR Probe Assays (Integrated DNA Technologies), and Nuclease free water were mixed at a ratio of 20:1:1:10 to prepare a PrimerProbe mix. The prepared PrimerProbe mix was added to a 384-well plate at 8 μL/well, and the cDNA obtained by reverse transcription was added at 2 μL/well. Real-Time PCR was performed under fast cycling conditions (95° C. for 3 min, followed by 40 cycles of 95° C. for 5 seconds and 62° C. for 30 seconds) to measure the fluorescent signal. The obtained data was analyzed using GraphPad Prism9 (GraphPad Software Inc.) to calculate the concentration (IC50 value) that reduces the mRNA expression level by 50%. The IC50 values (unit: nM) for CYP11A1, CYP17A1, CYP21A2, and STAR, of the compounds corresponding to each Example number are shown in Table 94.

CYP17A1 = assay: Changes in SF1 target gene expression for NCI-H295R: CYP17A1 mRNA (qPCR); format: cell-based; conditions: Homo sapiens, NCI-H295R cells, 24 hr
Protocol: as §1

CYP21A2 = assay: Changes in SF1 target gene expression for NCI-H295R: CYP21A2 mRNA (qPCR); format: cell-based; conditions: Homo sapiens, NCI-H295R cells, 24 hr
Protocol: as §1

STAR = assay: Changes in SF1 target gene expression for NCI-H295R: STAR mRNA (qPCR); format: cell-based; conditions: Homo sapiens, NCI-H295R cells, 24 hr
Protocol: as §1

SF-1 = target: T1, SF-1 (Homo sapiens, UniProt Q13285); assay: SF1 degradation induction in NCI-H295R SF-1-HiBiT cells (HiBiT DC50); format: cell-based; conditions: 24 hr, concentration that induces 50% degradation of SF-1
T1 construct: NCI-H295R SF-1-HiBiT cells with HiBiT tag knocked in at the endogenous SF1 locus; host or cells: NCI-H295R SF-1-HiBiT (knock-in at endogenous locus)
Method in brief: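 NCI-H295R cells carrying HiBiT-tagged SF-1, plated and grown 24 hr, then exposed to serially diluted compounds for 24 hr at 37° C. Remaining SF-1 read by lytic HiBiT luminescence; degradation rate from treated vs compound-free signal, DC50 as concentration giving 50% degradation.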

NCI-H295R cells = assay: Proliferation inhibitory action on NCI-H295R (CellTiter-Glo, 7 days); format: cell-based, human; conditions: Homo sapiens, NCI-H295R, 168 h
Method in brief: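 Compounds serially diluted in DMSO; cells seeded at 2×10^3 cells/well and cultured 7 days at 37° C, 5% CO2. CellTiter-Glo 2.0 luminescence read at day 0 and day 7; proliferation rate derived from compound-addition-day signal, untreated day-7 signal and treated day-7 signal.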

SMILES | IC50 (CYP11A1) | IC50 (CYP17A1) | IC50 (CYP21A2) | IC50 (STAR) | DC50 (SF-1) | GI50 (NCI-H295R cells)
COc1ccc([C@]2(CCN(Cc3ccc(C4=CC[C@H](CO)CC4)cc3)CC(C)(C)C(F)(F)F)CCOC(C)(C)C2)cc1 [Example W5, [(4R)-4′-{[{2-[(4R)-4-(4-Methoxyphenyl)-2,2-dimethyltetrahydro-2H-pyran-4-yl]ethyl)(3,3,3-trifluoro-2,2-dimethylpropyl)amino]methyl}-2,3,4,5-tetrahydro[biphenyl]-4-yl]methanol] | 90 nM | 372 nM | 138 nM | 131 nM |  | 
COc1ccc([C@]2(CCN(Cc3ccc(C4=CC[C@H](CN5CCN(C(=O)OC(C)(C)C)CC5)CC4)cc3)CC(C)(C)C(F)(F)F)CCOC(C)(C)C2)cc1 [Example X2, tert-Butyl 4-{[(4R)-4′-{[{2-[(4R)-4-(4-methoxyphenyl)-2,2-dimethyltetrahydro-2H-pyran-4-yl]ethyl)(3,3,3-trifluoro-2,2-dimethylpropyl)amino]methyl}-2,3,4,5-tetrahydro[biphenyl]-4-yl]methyl}piperazine-1-carboxylate] | 511 nM | 1230 nM | 581 nM | 776 nM |  | 
COc1ccc([C@]2(CCN(Cc3ccc(C4=CC[C@H](C(=O)O)CC4)c(F)c3)CC(C)(C)C(F)(F)F)CCOC(C)(C)C2)cc1 [Example V5, (4R)-2′-Fluoro-4′-{[{2-[(4R)-4-(4-methoxyphenyl)-2,2-dimethyltetrahydro-2H-pyran-4-yl]ethyl)(3,3,3-trifluoro-2,2-dimethylpropyl)amino]methyl}-2,3,4,5-tetrahydro[biphenyl]-4-carboxylic acid monohydrochloride] | 9.8 nM | 71 nM | 21 nM | 18 nM |  | 
COc1ccc([C@]2(CCN(Cc3ccc(C4=CCC(CN5CCN(C(=O)c6cccc7c6n(C)c(=O)n7C6CCC(=O)NC6=O)CC5)CC4)cc3)CC(C)(C)C(F)(F)F)CCOC(C)(C)C2)cc1 (stereo partly drawn) [Example AH4, 3-[4-({4-[(4′-{[{2-[(4R)-4-(4-Methoxyphenyl)-2,2-dimethyltetrahydro-2H-pyran-4-yl]ethyl}(3,3,3-trifluoro-2,2-dimethylpropyl)amino]methyl}-2,3,4,5-tetrahydro[biphenyl]-4-yl)methyl]piperazin-1-yl}carbonyl)-3-methyl-2-oxo-2,3-dihydro-1H-benzimidazol-1-yl]piperidine-2,6-dione] |  |  |  |  | 5.7 nM | 123 nM
COc1ccc([C@]2(CCN(Cc3ccc(C4=CC[C@H](CN5CCN(C(=O)c6ccc7c8c6CCCn8c(=O)n7[C@@H]6CCC(=O)NC6=O)CC5)CC4)cc3)CC(C)(C)C(F)(F)F)CCOC(C)(C)C2)cc1 [BG5, (3R)-3-{7-[(4-{[(4R)-4′-{[{2-[(4R)-4-(4-Methoxyphenyl)-2,2-dimethyltetrahydro-2H-pyran-4-yl]ethyl}(3,3,3-trifluoro-2,2-dimethylpropyl)amino]methyl}-2,3,4,5-tetrahydro[biphenyl]-4-yl]methyl}piperazin-1-yl)carbonyl]-2-oxo-5,6-dihydro-4H-imidazo[4,5,1-ij]quinolin-1(2H)-yl}piperidine-2,6-dione] |  |  |  |  | 9.2 nM | 84 nM
COc1ccc([C@]2(CCN(Cc3ccc4c(cnn4C4CC5(CCN(CC(=O)Nc6ccc7c(c6)n(C)c(=O)n7C6CCC(=O)NC6=O)CC5)C4)c3)CC(C)(C)C(F)(F)F)CCOC(C)(C)C2)cc1 (stereo partly drawn) [BA6, N-[1-(2,6-Dioxopiperidin-3-yl)-3-methyl-2-oxo-2,3-dihydro-1H-benzimidazol-5-yl]-2-[2-(5-{[{2-[(4R)-4-(4-methoxyphenyl)-2,2-dimethyltetrahydro-2H-pyran-4-yl]ethyl)(3,3,3-trifluoro-2,2-dimethylpropyl)amino]methyl}-1H-indazol-1-yl)-7-azaspiro[3.5]nonan-7-yl]acetamide] |  |  |  |  | 4.9 nM | 23 nM
COc1ccc(C2(CCN(Cc3ccc(OC4CCN(CC(=O)Nc5cccc6c5n(C)c(=O)n6C5CCC(=O)NC5=O)CC4)cc3)CC(C)(C)C(F)(F)F)CCC(F)(F)CC2)cc1 (stereo not shown) [Example AB6, 2-[4-(4-{[{2-[4,4-Difluoro-1-(4-methoxyphenyl)cyclohexyl]ethyl}(3,3,3-trifluoro-2,2-dimethylpropyl)amino]methyl}phenoxy)piperidin-1-yl]-N-[1-(2,6-dioxopiperidin-3-yl)-3-methyl-2-oxo-2,3-dihydro-1H-benzimidazol-4-yl]acetamide] |  |  |  |  | 29 nM | 165 nM
COc1ccc([C@]2(CCN(Cc3ccc(C4=CC[C@@H](C(=O)N5CCC(Nc6ccc7c8c6OCCn8c(=O)n7C6CCC(=O)NC6=O)CC5)CC4)c(F)c3)CC(C)(C)C(F)(F)F)CCOC(C)(C)C2)cc1 (stereo partly drawn) [BN2, 3-{7-[(1-{[(4S)-2′-Fluoro-4′-{[{2-[(4R)-4-(4-methoxyphenyl)-2,2-dimethyltetrahydro-2H-pyran-4-yl]ethyl}(3,3,3-trifluoro-2,2-dimethylpropyl)amino]methyl}-2,3,4,5-tetrahydro[biphenyl]-4-yl]carbonyl}piperidin-4-yl)amino]-2-oxo-4,5-dihydroimidazo[1,5,4-de][1,4]benzoxazin-1(2H)-yl}piperidine-2,6-dione] |  |  |  |  | 2.3 nM | 31 nM
COc1ccc([C@]2(CCN(Cc3ccc(C4=CCC(CN5CCN(Cc6ccc7c(c6)n(C)c(=O)n7C6CCC(=O)NC6=O)CC5=O)CC4)cc3)CC(C)(C)C(F)(F)F)CCOC(C)(C)C2)cc1 (stereo partly drawn) [AX3, 3-[5-({4-[(4′-{[{2-[(4R)-4-(4-Methoxyphenyl)-2,2-dimethyltetrahydro-2H-pyran-4-yl]ethyl)(3,3,3-trifluoro-2,2-dimethylpropyl)amino]methyl}-2,3,4,5-tetrahydro[biphenyl]-4-yl)methyl]-3-oxopiperazin-1-yl}methyl)-3-methyl-2-oxo-2,3-dihydro-1H-benzimidazol-1-yl]piperidine-2,6-dione] |  |  |  |  | 7.1 nM | 61 nM
COc1ccc([C@]2(CCN(Cc3ccc(OC4CC5(CCN(CC(=O)N6CCc7ccc8c(c7C6)n(C)c(=O)n8C6CCC(=O)NC6=O)CC5)C4)cc3)CC(C)(C)C(F)(F)F)CCOC(C)(C)C2)cc1 (stereo partly drawn) [Example AK10, 3-(8-{[2-(4-{[{2-[(4R)-4-(4-Methoxyphenyl)-2,2-dimethyltetrahydro-2H-pyran-4-yl]ethyl}(3,3,3-trifluoro-2,2-dimethylpropyl)amino]methyl}phenoxy)-7-azaspiro[3.5]nonan-7-yl]acetyl}-1-methyl-2-oxo-1,2,6,7,8,9-hexahydro-3H-imidazo[4,5-h]isoquinolin-3-yl)piperidine-2,6-dione] |  |  |  |  | 4.9 nM | 82 nM
COc1ccc([C@]2(CCN(Cc3ccc(C4=CCC(C(=O)N[C@H]5C[C@H](Nc6ccc7c(c6)n(C)c(=O)n7C6CCC(=O)NC6=O)C5)CC4)cc3)CC(C)(C)C(F)(F)F)CCOC(C)(C)C2)cc1 (stereo partly drawn) [AY8, N-(Trans-3-{[1-(2,6-dioxopiperidin-3-yl)-3-methyl-2-oxo-2,3-dihydro-1H-benzimidazol-5-yl]amino}cyclobutyl)-4′-{[{2-[(4R)-4-(4-methoxyphenyl)-2,2-dimethyltetrahydro-2H-pyran-4-yl]ethyl}(3,3,3-trifluoro-2,2-dimethylpropyl)amino]methyl}-2,3,4,5-tetrahydro[biphenyl]-4-carboxamide] |  |  |  |  | 7.3 nM | 71 nM
